Some test systems named below: DLD-1; DMS-114; DMS-273; HOP-18; KM-20L2; M19-MEL; RXF 631; SNB-78; XF498.
Holding throughout (assay): NCI-60 cell line screen, 48 h

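Growth conditions: 96-well plates. Treatment: test compound, 48 hours, 5 concentrations. Analysis: linear interpolation between bracketing concentrations; unreached endpoints set to highest concentration. GI50 marks 50% less growth.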 Calls of active or inactive are those of the source. No stated cut-off is given here; in the data, active = GI50 up to about 1.1 µM and inactive = higher. Some results are limits rather than exact numbers.

Take `Cc1ccccc1C1=C/C(=C(\SS/C(C(=O)c2ccc(OCC(=O)O)c(Cl)c2Cl)=C2\C=C(c3ccccc3C)SS2)C(=O)c2ccc(OCC(=O)O)c(Cl)c2Cl)SS1`: the GI50 was 23.8 µM (inactive) with DLD-1; 9.04 µM (inactive) in the assay with DMS-114; 20 µM (inactive) in the assay with DMS-273; 16.2 µM (inactive) with HOP-18; 37.9 µM (inactive) in the assay on KM-20L2; 21.3 µM (inactive) in the assay with M19-MEL. The values for the GI50 in the assay with RXF 631, in the assay on SNB-78 and in the assay with XF498 were 25.9 µM (inactive), 14.4 µM (inactive) and 19.2 µM (inactive), respectively.

For `C[C@H]1CC[C@H](NC(=O)N(CCCl)N=O)CC1`, the GI50 in the assay on DLD-1 is 39.5 µM (inactive); in the assay on DMS-114, 36.5 µM (inactive); in the assay with DMS-273, 33.1 µM (inactive); in the assay on HOP-18, 40.8 µM (inactive); in the assay on KM-20L2, 56.4 µM (inactive); in the assay on M19-MEL, 41.3 µM (inactive). In addition, the GI50 in the assay with RXF 631 is 33.1 µM (inactive); in the assay with SNB-78 it was 35.2 µM (inactive); with XF498, 45.7 µM (inactive).

As to `COc1cc2c(c(OC)c1OC)-c1ccc(SC)c(=O)cc1C(CC(=O)Oc1cccc(F)c1)C2` (centres undefined), the GI50 was 0.397 µM (active) with DLD-1; 0.24 µM (active) in the assay on DMS-114; 0.214 µM (active) in the assay with DMS-273; > 62.2 µM (inactive) with HOP-18; 0.0813 µM (active) in the assay on KM-20L2; 0.263 µM (active) in the assay with M19-MEL. Moreover, the figures for the GI50 in the assay with RXF 631, with SNB-78 and in the assay on XF498 were 0.115 µM (active), 0.237 µM (active) and 0.344 µM (active), respectively.

`O=C(N/C(=C\c1cccc([N+](=O)[O-])c1)c1nc2cc([N+](=O)[O-])ccc2[nH]1)c1ccccc1`: the GI50 in the assay on DLD-1 was 28.4 µM (inactive); in the assay with DMS-273, 39 µM (inactive); in the assay on KM-20L2, 23.1 µM (inactive); with M19-MEL it was 40.7 µM (inactive); in the assay on RXF 631, 28.8 µM (inactive); with SNB-78, 49.3 µM (inactive). Further, the GI50 in the assay on XF498 was 20.7 µM (inactive).

For `c1ccc(-c2nnc3nn4c(-c5ccccc5)cnnc4c3c2-c2ccccc2)cc1`, the GI50 was 95.1 µM (inactive) in the assay with DLD-1; 35.6 µM (inactive) in the assay on DMS-114; > 100 µM (inactive) with DMS-273; 53 µM (inactive) in the assay on HOP-18; 95.3 µM (inactive) with KM-20L2; 88.7 µM (inactive) in the assay with M19-MEL. Moreover, the GI50 with RXF 631 is 18.7 µM (inactive); in the assay on SNB-78, 31.7 µM (inactive); in the assay with XF498 it was 27.5 µM (inactive).

Consider `Cc1ccc(C(=O)Nc2ccc(S(=O)(=O)O)c3cc(S(=O)(=O)O)cc(S(=O)(=O)O)c23)cc1NC(=O)c1cccc(NC(=O)Nc2cccc(C(=O)Nc3cc(C(=O)Nc4ccc(S(=O)(=O)O)c5cc(S(=O)(=O)O)cc(S(=O)(=O)O)c45)ccc3C)c2)c1` [SURAMIN], for which the GI50 with DLD-1 was 97.5 µM (inactive); with DMS-114, 28.6 µM (inactive); in the assay with DMS-273 it was 39.8 µM (inactive); with HOP-18, > 52.4 µM (inactive); in the assay with KM-20L2, 34.6 µM (inactive); with M19-MEL, 59.7 µM (inactive). Moreover, the figures for the GI50 in the assay with SNB-78 and in the assay on XF498 were > 71.3 µM (inactive) and 27 µM (inactive), respectively.

Regarding `COc1ccc2nc3ccccc3c(NCCN(CCCl)CCCl)c2c1`, the GI50 was 0.738 µM (active) in the assay with DLD-1; 0.333 µM (active) in the assay with DMS-273; 0.474 µM (active) with KM-20L2; 1.27 µM (inactive) in the assay on M19-MEL; 0.455 µM (active) with RXF 631; 0.769 µM (active) with SNB-78. Moreover, the GI50 in the assay with XF498 was 0.497 µM (active).

For the molecule `CCC12CCCN(Cc3ccccc3)C1c1c(n(C)c3ccccc13)C(C(=O)OC)C2` (centres undefined), the GI50 in the assay with DLD-1 was 212 µM (inactive); with DMS-114 it was 90.6 µM (inactive); in the assay with DMS-273 it was 84.5 µM (inactive); with KM-20L2, 130 µM (inactive); with M19-MEL, 112 µM (inactive); in the assay on RXF 631 it was 111 µM (inactive). Besides, the GI50 in the assay on XF498 was 36.8 µM (inactive).

For `C[C@H](OCc1ccccc1)C(=O)N1CCS(=O)(=O)N2CCC[C@H]2C1=O`, the GI50 with DLD-1, in the assay on DMS-114, in the assay with HOP-18, with KM-20L2, with M19-MEL and with RXF 631 was > 100 µM (inactive) each time. The GI50 in the assay with SNB-78 is > 100 µM (inactive).

On to `CCN(CC)c1ccc2c(c1)N=C1N=CC=CN1C2(c1ccc(N(C)C)cc1)c1ccc(N(C)C)cc1`, for which the GI50 is 4.53 µM (inactive) with DLD-1; 3.09 µM (inactive) in the assay on DMS-114; 25.8 µM (inactive) in the assay with DMS-273; 3.72 µM (inactive) with HOP-18; 2.97 µM (inactive) with KM-20L2; 5.97 µM (inactive) with M19-MEL. Besides, the GI50 in the assay with RXF 631 was 3.83 µM (inactive); with SNB-78, 16.7 µM (inactive); with XF498, 3.72 µM (inactive).

`CCOc1ccc(/C=C\c2cc(OC)c(OC)c(OC)c2)cc1`: the GI50 is 0.0194 µM (active) with DLD-1; 0.00118 µM (active) with DMS-114; 0.0153 µM (active) with DMS-273; 0.000241 µM (active) in the assay on KM-20L2; 0.0191 µM (active) in the assay on M19-MEL; 0.367 µM (active) in the assay on RXF 631. For the same molecule, the GI50 in the assay on SNB-78 was 0.000745 µM (active); in the assay with XF498, 0.000453 µM (active).

Regarding `COC(=O)C1=C(c2ccc(OC)c(OC)c2)OC(c2ccc(OC)c(OC)c2)C1` (centres undefined), the GI50 was 5.93 µM (inactive) in the assay on DLD-1; 23.2 µM (inactive) in the assay on DMS-114; 54.7 µM (inactive) in the assay with DMS-273; 33.5 µM (inactive) with HOP-18; 39.4 µM (inactive) in the assay on KM-20L2; 42.6 µM (inactive) in the assay with M19-MEL. Further, the figures for the GI50 with SNB-78 and in the assay on XF498 were 28.7 µM (inactive) and 23.2 µM (inactive), respectively.

In the case of `COc1ccc(OC)c(CCc2ccccc2CC(=O)O)c1`, the GI50 with DLD-1, with DMS-114, with DMS-273, with HOP-18, in the assay on KM-20L2 and with M19-MEL was > 100 µM (inactive) in each case. Further, the GI50 in the assay on SNB-78 and with XF498 was > 100 µM (inactive) in each case.

For the molecule `O=C1[C@@H]2C3SC(c4ccccc43)[C@@H]2C(=O)N1c1ccccc1`, the GI50 was > 100 µM (inactive) with DLD-1; > 100 µM (inactive) in the assay with DMS-114; > 100 µM (inactive) in the assay on DMS-273; > 90.4 µM (inactive) in the assay with HOP-18; > 100 µM (inactive) in the assay on KM-20L2; > 100 µM (inactive) with M19-MEL. Besides, the GI50 was > 100 µM (inactive) in the assay with SNB-78 and 61 µM (inactive) in the assay with XF498.

Consider `O=C1NC(c2ccccc2)(c2ccccc2)C(=O)N1CCCCCCN1C(=O)NC(c2ccccc2)(c2ccccc2)C1=O`, for which the GI50 in the assay with DLD-1 was > 100 µM (inactive); in the assay with DMS-114, 34.2 µM (inactive); with DMS-273 it was 46 µM (inactive); in the assay with HOP-18, 26.2 µM (inactive); with KM-20L2 it was > 100 µM (inactive); in the assay with M19-MEL it was > 100 µM (inactive). In addition, the GI50 with SNB-78 was 33.3 µM (inactive); in the assay on XF498, 10.3 µM (inactive).

Turning to `S=P(N1CC1)(N1CC1)N1CC1` [THIOTEPA], the GI50 with DLD-1 is 195 µM (inactive); in the assay with DMS-114, 35.4 µM (inactive); with DMS-273, 21.3 µM (inactive); in the assay on HOP-18, 231 µM (inactive); in the assay with KM-20L2, 175 µM (inactive); in the assay on M19-MEL, 142 µM (inactive). The GI50 in the assay with SNB-78 is 385 µM (inactive); in the assay on XF498, 95.1 µM (inactive).

The record behind these values is ChEMBL document CHEMBL1201862, “PubChem BioAssay data set” (2004).
